The source of these data is patent US10711000B2 (Fronthera U.S. Pharmaceuticals LLC, priority 2018, dated 2020).

pIC50: −log10 of the molar value. Like-named read-outs stand apart in the source and are kept apart here.

The term pIC50 denotes −log10 of the IC50, conventionally taken in molar units.

This experiment deals with T1, Autotaxin (Homo sapiens, UniProt Q13822).
T1 construct: from tissue; host or cells: pooled human plasma
Kind of experiment: LPA formation in pooled human plasma (ex vivo autotaxin inhibition). The format is biochemical. The note with it: 2 hours incubation. The protocol: Autotaxin is a plasma phosphodiesterase that converts lysophosphatidylcholine (LPC) into lysophosphatidic acid (LPA), therefore LPA formation was used to evaluate the potency of autotaxin inhibitors. The potency of compound was evaluated ex vivo in pooled human plasma.
Various concentrations of compound were incubated with plasma for 2 hours, and the LPA 18:2 and 20:4 concentration was measured by LC/MS/MS. To determine the LPA18:2 or 20:4 concentration in study plasma, a 10× calibration standard of LPA 18:2 or 20:4 were prepared by serial dilution in butyl alcohol: 20000, 10000, 5000, 2000, 1000, 500, 200, 100, 50, 20, and 10 ng/mL. 3 μL of calibration standard solution was added into 27.0 μL of blank plasma in 1.5-mL microcentrifuge tubes to generate 1× calibration standards. The 30.0 μL of standards or study plasma was added into 1.5-mL microcentrifuge tubes. 200 μL of butyl alcohol (containing 25.0 ng/mL LPA17:0 for internal control) was added into each 1.5-mL microcentrifuge tube containing study plasma or calibration standards. After vortexing for 1 minute and centrifuging at 10000 rpm for 10 min, 180 μL of supernatant was transferred into a 96-well plate and the LPA18:2 concentration in the plasma was quantitated using LC/MS/MS together with standards. Briefly, 8 μL of the solutions were injected for LC-MS/MS analysis using an ACQUITY UPLC BEH C18 column (2.1×50 mm, 1.7 μm) with mobile phase A [20 mM NH4OAC in water (0.1% FA)] and phase B [5 mM NH4OAC in water/0.2% FA in ACN=5:95]. Mass spectrometer parameters optimization for LPA18:2 were performed by Deprotonated molecular ion at m/z 433.2 ([M−H]^−) for LPA18:2, 457.2 for LPA20:4 and abundant product ion at m/z 152.8 for both LPA18:2 and LPA20:4 were obtained. Quantitative data were acquired in multiple reaction monitoring (MRM) negative electrospray ionization mode
The inhibition rate of LPA formation was determined by comparing the levels of LPA in treated and non-treated plasma. The data was plotted against the corresponding concentration of compound and the IC50 was calculated through non-linear regression fitting.

The mark [1] stands for this setting: LPA 18:2 by LC/MS/MS, read-out: LPA formation (18:2) (IC50).
[2] abbreviates: LPA 20:4 by LC/MS/MS, read-out: LPA formation (20:4) (IC50).

As for `CCn1nc2nc(C)c(N3CC4(CN(C(=O)[C@H]5CCOC5)C4)C3)cc2c1N(C)c1nc(-c2ccc(F)cc2)c(C#N)s1` [Compound 121, (S)-2-((2-ethyl-6-methyl-5-(6-(tetrahydrofuran-3-carbonyl)-2,6-diazaspiro[3.3]heptan-2-yl)-2H-pyrazolo[3,4-b]pyridin-3-yl)(methyl)amino)-4-(4-fluorophenyl)thiazole-5-carbonitrile], the pIC50 was not below 7.00 under setting [1] and not below 7.00 under setting [2].
As for `CCc1nn2c(C)cc(N3CC4(CN(C(=O)c5ccco5)C4)C3)cc2c1N(C)c1nc(-c2ccc(F)cc2)c(C#N)s1` [Example 66, 2-((2-ethyl-5-(6-(furan-2-carbonyl)-2,6-diazaspiro[3.3]heptan-2-yl)-7-methylpyrazolo[1,5-a]pyridin-3-yl)(methyl)amino)-4-(4-fluorophenyl)thiazole-5-carbonitrile], the negative logarithm of the IC50 (pIC50) by setting is: under setting [1], not below 7.00; under setting [2], not below 7.00.
Turning to `CCc1nn2c(C)cc(N3CC4(CN(C(=O)C5(O)CCOCC5)C4)C3)cc2c1N(C)c1nc(-c2ccc(F)cc2)c(C#N)s1` [Example 56], the pIC50 under setting [1] was not below 7.00 and the pIC50 under setting [2] was not below 7.00.
`CCc1nn2c(C)cc(N3CC4(CN(C(=O)[C@H](O)CO)C4)C3)cc2c1N(C)c1nc(-c2ccc(F)cc2)c(C#N)s1` (single isomer, unassigned) [Example 75]: the pIC50 is 6.30 to 7.00 under setting [1] and 6.30 to 7.00 under setting [2].
As for `CCc1nn2ccc(N3CCC4(CC3)CC(C(=O)N3CC(O)C3)C4)cc2c1N(C)c1nc(-c2ccc(F)cc2)c(C#N)s1` [Example 6, 2-[[2-ethyl-5-[2-(3-hydroxyazetidine-1-carbonyl)-7-azaspiro[3.5]nonan-7-yl]pyrazolo[1,5-a]pyridin-3-yl]-methyl-amino]-4-(4-fluorophenyl)thiazole-5-carbonitrile], the pIC50 reads like this: under setting [1], not below 7.00; under setting [2], not below 7.00.
`CCc1nn2c(C)cc(N3CCC4(CCN(C)C4=O)CC3)cc2c1N(C)c1nc(-c2ccc(F)cc2)c(C#N)s1` [Example 50, 2-((2-ethyl-7-methyl-5-(2-methyl-1-oxo-2,8-diazaspiro[4.5]decan-8-yl)pyrazolo[1,5-a]pyridin-3-yl)(methyl)amino)-4-(4-fluorophenyl)thiazole-5-carbonitrile]: the pIC50 was less than 6.00 under setting [1] and less than 6.00 under setting [2].
`CCc1nn2c(C)cc(N3CC4(CN(C(=O)[C@H]5COC[C@@H]5O)C4)C3)cc2c1N(C)c1nc(-c2ccc(F)cc2)c(C#N)s1` (stereo in doubt) [Example 59, 2-((2-ethyl-5-(6-(4-hydroxytetrahydrofuran-3-carbonyl)-2,6-diazaspiro[3.3]heptan-2-yl)-7-methylpyrazolo[1,5-a]pyridin-3-yl)(methyl)amino)-4-(4-fluorophenyl)thiazole-5-carbonitrile]: the negative-log IC50 (pIC50) reads like this: under setting [1], 6.30 to 7.00; under setting [2], 6.30 to 7.00.
On to `CCc1nn2c(C)cc(N3CCC4(CN(C(=O)[C@H]5CCOC5)C4)C3)cc2c1N(C)c1nc(-c2ccc(F)cc2)c(C#N)s1` [Example 51, (S)-2-((2-ethyl-7-methyl-5-(2-(tetrahydrofuran-3-carbonyl)-2,6-diazaspiro[3.4]octan-6-yl)pyrazolo[1,5-a]pyridin-3-yl)(methyl)amino)-4-(4-fluorophenyl)thiazole-5-carbonitrile], for which the pIC50 under setting [1] is not below 7.00 and the pIC50 under setting [2] is not below 7.00.
In the case of `CCc1nn2c(C)cc(N3CCC4(CN(C[C@@H](O)CO)C4)C3)cc2c1N(C)c1nc(-c2ccc(F)cc2)c(C#N)s1` [Example 69, (R)-2-((5-(2-(2,3-dihydroxypropyl)-2,6-diazaspiro[3.4]octan-6-yl)-2-ethyl-7-methylpyrazolo[1,5-a]pyridin-3-yl)(methyl)amino)-4-(4-fluorophenyl)thiazole-5-carbonitrile], the pIC50 under setting [1] was 6.30 to 7.00 and the pIC50 under setting [2] was 6.30 to 7.00.
`[2H]c1cc(N2CCN(CC(=O)N3CC(O)C3)CC2)cc2c(N(C)c3nc(-c4ccc(F)cc4)c(C#N)s3)c(CC)nn12` [Example 19, 2-((2-ethyl-5-(4-(2-(3-hydroxyazetidin-1-yl)-2-oxoethyl)piperazin-1-yl)pyrazolo[1,5-a]pyridin-3-yl-7-d)(methyl)amino)-4-(4-fluorophenyl)thiazole-5-carbonitrile]: the pIC50 reads like this: under setting [1], not below 7.00; under setting [2], not below 7.00.
As to `CCc1nn2c(C)cc(N3CCC4(CN(C(=O)C5(O)CC5)C4)C3)cc2c1N(C)c1nc(-c2ccc(F)cc2)c(C#N)s1` [Example 54, 2-((2-ethyl-5-(2-(1-hydroxycyclopropane-1-carbonyl)-2,6-diazaspiro[3.4]octan-6-yl)-7-methylpyrazolo[1,5-a]pyridin-3-yl)(methyl)amino)-4-(4-fluorophenyl)thiazole-5-carbonitrile], the pIC50 under setting [1] is 6.00 to 6.30 and the pIC50 under setting [2] was 6.00 to 6.30.
For the molecule `CCc1nn2c(C)cc(N3CC4(CN(C(=O)N5CCOCC5)C4)C3)cc2c1N(C)c1nc(-c2ccc(F)cc2)c(C#N)s1` [Example 42], the pIC50 by setting is: under setting [1], not below 7.00; under setting [2], not below 7.00.
As for `CCc1nn2c(C)cc(N3CC4(CN(C(=O)C5CCCO5)C4)C3)cc2c1N(C)c1nc(-c2ccc(F)cc2)c(C#N)s1` (stereo not shown) [Example 38, 2-((2-ethyl-7-methyl-5-(6-(tetrahydrofuran-2-carbonyl)-2,6-diazaspiro[3.3]heptan-2-yl)pyrazolo[1,5-a]pyridin-3-yl)(methyl)amino)-4-(4-fluorophenyl)thiazole-5-carbonitrile], the pIC50 is not below 7.00 under setting [1] and not below 7.00 under setting [2].
In the case of `CCc1nn2c(C)cc(N3CC4(CCN(C(=O)C5CCOCC5)C4)C3)cc2c1N(C)c1nc(-c2ccc(F)cc2)c(C#N)s1` [Example 44, 2-((2-ethyl-7-methyl-5-(6-(tetrahydro-2H-pyran-4-carbonyl)-2,6-diazaspiro[3.4]octan-2-yl)pyrazolo[1,5-a]pyridin-3-yl)(methyl)amino)-4-(4-fluorophenyl)thiazole-5-carbonitrile], the pIC50 under setting [1] is not below 7.00 and the pIC50 under setting [2] was not below 7.00.
For the molecule `CCc1nn2cc(F)c(N3CCC4(CC3)CN(C(=O)N3CC(O)C3)C4)cc2c1N(C)c1nc(-c2ccc(F)cc2)c(C#N)s1` [Example 110, 2-((2-ethyl-6-fluoro-5-(2-(3-hydroxyazetidine-1-carbonyl)-2,7-diazaspiro[3.5]nonan-7-yl)pyrazolo[1,5-a]pyridin-3-yl)(methyl)amino)-4-(4-fluorophenyl)thiazole-5-carbonitrile], the pIC50 by setting is: under setting [1], not below 7.00; under setting [2], not below 7.00.
As for `CCc1nn2c(C)cc(N3CC4(C3)CN(c3ncco3)C4)cc2c1N(C)c1nc(-c2ccc(F)cc2)c(C#N)s1` [Example 35, 2-((2-ethyl-7-methyl-5-(6-(oxazol-2-yl)-2,6-diazaspiro[3.3]heptan-2-yl)pyrazolo[1,5-a]pyridin-3-yl)(methyl)amino)-4-(4-fluorophenyl)thiazole-5-carbonitrile], the pIC50 was 6.30 to 7.00 under setting [1] and 6.30 to 7.00 under setting [2].
On to `CCc1nn2c(C)cc(N3CC4(CN(C(=O)[C@@H](O)CO)C4)C3)cc2c1N(C)c1nc(-c2ccc(F)cc2)c(C#N)s1` (single isomer, unassigned) [Example 76], for which the pIC50 under setting [1] is not below 7.00 and the pIC50 under setting [2] was 6.30 to 7.00.
